Results reported in patent US20060281771A1, “SYNERGISTIC MODULATION OF FLT3 KINASE USING AMINOQUINOLINE AND AMINOQUINAZOLINE KINASE MODULATORS” (priority 2005, published 2006).
Entries after “also recorded” stand apart in the source; their conditions may differ.

Key:
MV4-11 AML cells = assay: Cell proliferation assay and combination index analysis, MV4-11; assay type: cell-based, human; conditions: single agent; depending on the cell type
Excerpt: (§1) All data points are an average of triplicate samples.
as §1

MV4-11 tumor xenografts = assay: MV4-11 human tumor xenograft regression model; assay type: in vivo, nude mice; conditions: Tipifarnib alone 50 mg/kg po
Description: Female athymic nude mice (CD-1, nu/nu, 9-10 weeks old) were obtained from Charles River Laboratories (Wilmington, Mass.) and were maintained according to NIH standards. All mice were group housed (5 mice/cage) under clean-room conditions in sterile micro-isolator cages on a 12-hour light/dark cycle in a room maintained at 21-22° C. and 40-50% humidity. Mice were fed irradiated standard rodent diet and water ad libitum. All animals were housed in a Laboratory Animal Medicine facility that is fully accredited by the American Association for Assessment and Accreditation of Laboratory Animal Care (AAALAC). […]
The time course of the inhibitory effects of FLT3 inhibitor compounds on the growth of MV4-11 tumors is illustrated in FIG. 1. […] Percent inhibition (% I) of tumor growth was calculated versus tumor growth in the vehicle-treated Control group on the last study day.
Statistical significance versus Control was determined by Analysis of Variance (ANOVA) followed by Dunnett's t-test: * p<0.05; ** p<0.01.
(See FIG. 2). […] Percent Inhibition was calculated versus the mean tumor weight in the vehicle-treated control group. Statistical significance versus Control was determined by ANOVA followed by Dunnett's t-test: ** p<0.01. […]

[1] = Body weight and overt toxicity in tumor-bearing mice; conditions: alone or in combination
Description: Female athymic nude mice weighing no less than 20-21 grams were inoculated subcutaneously in the left inguinal region of the thigh with 5×10^6 tumor cells in a delivery volume of 0.2 mL. For regression studies, the tumors were allowed to grow to a pre-determined size prior to initiation of dosing. […] Mice were dosed orally by gavage with vehicle (control group) or compound at various doses twice-daily (b.i.d.) during the week and once-daily (q.d.) on weekends. […] If tumors in the control mice reached ˜10% of body weight (˜2.0 grams), the study was to be terminated. […] During the study, tumor growth was measured three times-a-week (M, W, F) using electronic Vernier calipers. Tumor volume (mm^3) was calculated using the formula […], where L=length (mm) and W=width (shortest distance in mm) of the tumor. […]
Female athymic nude mice weighing no less than 20-21 grams were inoculated subcutaneously in the left inguinal region of the thigh with 5×10^6 tumor cells in a delivery volume of 0.2 mL. For regression studies, the tumors were allowed to grow to a pre-determined size prior to initiation of dosing. […] During the study, tumor growth was measured three times-a-week (M, W, F) using electronic Vernier calipers. Tumor volume (mm^3) was calculated using the formula […], where L=length (mm) and W=width (shortest distance in mm) of the tumor. […]

[2] = cited from earlier work
[3] = multicenter Phase II trial, relapsed AML
[4] = patients with relapsed and refractory AML

SMILES: Cn1cncc1C(N)(c1ccc(Cl)cc1)c1ccc2c(c1)c(-c1cccc(Cl)c1)cc(=O)n2C (single isomer, unassigned; (+)) [Tipifarnib, (+)-6-[amino(4-chlorophenyl)(1-methyl-1H-imidazol-5-yl)methyl]-4-(3-chlorophenyl)-1-methyl-2(1H)-quinolinone]
- potency range (MV4-11 AML cells): high nanomolar to high picomolar range
- effect on tumor volume vs control (MV4-11 tumor xenografts; 9 days, Day 9): not significantly reduced; also recorded: ineffective
- effect on tumor growth (MV4-11 tumor xenografts; 16 days): ineffective
- overt toxicity ([1]; 9-day treatment): No overt toxicity
- overt toxicity ([1]; 16-day treatment): No overt toxicity
- >50% reduction in bone marrow blasts [2, 3]: 31 of 50
- complete responses (bone marrow blasts <5%) [2, 3]: 17 of 50
- patients achieving complete remission [2, 4]: 2 patients
- response rate [2, 4]: ~30%
